In ChEMBL document CHEMBL5370565, “Inhibition of Cysteine Proteases via Thiol-Michael Addition Explains the Anti-SARS-CoV-2 and Bioactive Properties of Arteannuin B” (J Nat Prod, 2023):

Tested on: SARS-CoV-2
Assay: Antiviral activity against SARS-CoV-2 nCoV-2019BetaCoV/Wuhan/WIV04/2019 infected in African green monkey Vero E6 cells assessed as reduction in viral yield preincubated with cells for 1 hrs followed by viral infection for 1 hrs with subsequent replacement of fresh media containing compound and measured 24 hrs post infection by qRT-PCR analysis
Assay type: functional, organism-based
Details: Severe acute respiratory syndrome coronavirus 2, nCoV-2019BetaCoV/Wuhan/WIV04/2019, Vero C1008

`C=C1C(=O)O[C@@]23C1CC[C@@H](C)[C@@H]2CC[C@@]1(C)O[C@@H]31` (stereo partly specified) gave an EC50 of 10.3 µM.
